Laboratory results as given in US12083178B2, “Anti-fibroblastic fluorochemical emulsion therapies” (priority 2010, dated 2024).

Test: Treatment of a dog with soft tissue sarcoma and lung metastasis by pulmonary aerosol administration
Type: in vivo, dog (Golden Retriever)
Conditions: agent aerosolized alone, without emulsion; general observation
Experimental: A 9 year old Golden Retriever with soft tissue sarcoma and extensive lung metastasis was treated with 9 mg/ml twice weekly for 10 weeks by pulmonary aerosol administration (FIG. 7A & FIG. 7B). […]

Which “necrosis in lung parenchyma and pleural metastasis” value does the source give for `Nc1ccn([C@@H]2O[C@H](CO)[C@@H](O)C2(F)F)c(=O)n1` [Gemcitabine, gemcitabine] here?
The value was “severe necrosis is always observed”.
